Assay results published in patent US11584744B2 (UNIVERSITY OF WASHINGTON, priority 2017, dated 2023).
Several values for one entry are separate records, joined by “and”; a condition that tells them apart may be missing. Equal entries are not always repeated. Where two headings read alike, the source gives them in different places.

How the values were obtained:
S. aureus (ATCC 29213) [1] = assay: Macromolecular synthesis assays (radiolabeled precursor incorporation); type: cell-based, Staphylococcus aureus; conditions: 30 minute incubations
Procedure: Macromolecular synthesis assays: Methods for measuring uptake of radiolabeled precursors by S. aureus (ATCC strain 29213) were adapted from previous publications. For these assays, bacteria were grown in defined media (DM): RPMI-1640 pH 7.3±0.1 without phenol red or L-glutamine (Lonza, Basel, Switzerland) supplemented with 4 mM L-glutamine (Lonza, Basel, Switzerland), 10 mM HEPES (Lonza, Basel, Switzerland), and 1% (w/v) D-glucose (Sigma Aldrich, St. Louis, Mo.). Fresh overnight cultures grown in DM at 37° C. were diluted 1:50 in pre-warmed DM and grown at 37° C. with shaking (150 rpm) until reaching an OD600 of 0.420 correlating to ˜1*10^9 CFUs/mL in mid-log phase. Each compound was assayed in quadruplicate with an 11-point three-fold serial dilution per radioisotope. A pre-warmed 96-well V-bottom plate (Corning 3894; Corning, Corning, Mass.) containing 25 μL of 4× final concentration of test compound was inoculated with 65 μL of mid-log phase bacteria (OD600 of 0.420). Both positive and negative control wells received 25 μL untreated DM and 65 μL of inoculum at the same time. After one minute, 10 μL of radiolabeled precursor (10× final concentration in DM) was added to samples and positive control wells. Final isotope concentrations for assay of [3H]-lysine (protein), [3H]-thymidine (DNA), and [3H]-uridine (RNA) were 10 μCi/mL, 2 μCi/mL, and 2 μCi/mL respectively. […] After termination, 10 μL of 10× radiolabeled precursor was added to negative control wells. The negative control consisted of adding radiolabeled precursors after termination of the bacterial incubation in order to represent background measurement of the isotope. Plates were sealed with plate tape (Thermo Fischer Scientific, Waltham, Mass.) and shaken at 250 rpm for one hour at room temperature. Aliquots of 125 μL were transferred from the 96-well V-bottom plates to 96-well filter plates (Merck Millipore, Billerica, Mass.). To bind macromolecules, the samples were passed through the filter membrane (0.45 μM hydrophilic Durapore PVDF membrane) with a vacuum manifold, then the filter was washed with 4×200 μL 10% TCA and 1×150 μL of 95% ethanol, and dried overnight in vacuum at room temperature. 25 μL Ultima Gold scintillation fluid (Perkin Elmer, Waltham, Mass.) was added to each well and DPM was quantified using a MicroBeta^2-2450 (Perkin Elmer, Waltham, Mass.) scintillation counter. The percent incorporation was determined by subtracting each well by the average negative background and dividing by the average positive incorporation×100. Error bars represent SEM between replicates. The assay was run twice with similar results.

S. aureus (ATCC 29213) [2] = type: cell-based, Staphylococcus aureus; conditions: 8× the MIC; for Resistance frequency (Expt. 1) / Resistance frequency (Expt. 2): 72 h; for Resistance frequency (average or greater #): two independent experiments
Procedure: Resistance frequency rates determination: The spontaneous resistance frequency rates to test compounds was determined according to published methods. Agar selection plates were made by adding compound from DMSO stocks into molten Mueller Hinton agar in a 55° C. water bath. […] The final DMSO concentration was <0.1% per plate. Plates were dried in a sterile hood for 30 minutes prior to overnight storage at 4° C., and pre-warmed in the 37° C. incubator for 1 hour prior to assay.
A fresh overnight culture was diluted 1:50 in MHB and grown at 37° C. with shaking (150 rpm) until reaching an OD600 of 0.4 correlating to ˜2×10^9 CFUs/mL. Approximately 3 mL for a total of 6*10^9 CFUs were distributed onto 4 plates for each compound. Plates were incubated at 37° C. for 72 h prior to counting of colonies. The starting inoculum was also serially diluted and plated to quantify initial bacterial load. The resistance frequency was determined as the number of compound-resistant colonies divided by the total colonies plated.
Resistance frequency rates: The propensity for S. aureus to develop resistance to MetRS inhibitors was also studied (Table 6).

S. aureus (ATCC 29213) [3] = assay: Neutropenic murine S. aureus thigh infection model; type: in vivo, Staphylococcus aureus; conditions: 75 mg/kg orally ×2; for reduction of bacterial load below stasis level: neutropenic mouse
Source text: Murine thigh infection model. Animal studies were approved by the Institutional Animal Care and Use Committee at the University of Washington, Seattle. Female specific pathogen free CD1 mice were obtained from Charles River (Wilmington, Mass.) weighing 23-27 grams and allowed at least 3 days to acclimate prior to study. Mice had access to food and water ad libitum. Neutropenia was induced by administering cyclophosphamide monohydrate (Sigma Aldrich C7397; St. Louis, Mo.) via IP injection 4 days (at 150 mg/kg) and 1 day (at 100 mg/kg) prior to infection. Neutropenic status was confirmed by neutrophil count <100 cells/mm^3.
Overnight culture of S. aureus (ATCC strain 29213) was diluted 1:100 in MHB and incubated until reaching mid-log phase (OD600<0.750). The inoculum was prepared by pelleting log-phase culture and re-suspending in sterile dPBS. The culture was adjusted to OD600 of 0.200 and diluted 1:100 in sterile dPBS correlating to an inoculum of ˜5*10^5 CFU/50 μL. The mice were infected by an intramuscular injection of 50 μL in the right posterior thigh while under isoflurane gas anesthesia. At 1 h post infection, one vehicle group was sacrificed for determination of initial inoculum ([…] level of infection). Mice were dosed at 2 and 12 h post-infection with test compounds (below); they received a SC dose of 5 mg/kg ketoprofen at 2 h post-infection for pain management. Mice were sacrificed at 24 h post-infection; the thigh muscle was sterilely removed, weighed, homogenized in 5 mLs dPBS, serially diluted, plated on tryptic soy agar in duplicate, and incubated overnight at 37° C. Colonies were counted to quantify the bacterial load in CFUs per gram of thigh tissue.
Vancomycin was given at 100 mg/kg SC in 100 μL in a 0.9% saline solution. […] Test compounds were administered PO in 200 μL of vehicle containing 60% Phosal 53 MCT (Lipoid, Ludwigshafen Germany), 30% PEG400 (Sigma Aldrich, St. Louis, Mo.), and 10% EtOH (Decon Laboratories, King of Prussia, Pa.).
Efficacy studies in mice: Selected compounds were tested for in vivo efficacy in the neutropenic S. aureus thigh infection model (9). Mice were immunosuppressed with cyclophosphamide then infected in a thigh with 5×10^5 S. aureus (ATCC 29213). Compounds were dosed orally with 75 mg/kg at 2 and 12 h post-infection. At 24 h, thighs were harvested for CFU counts.

T. cruzi = T. cruzi growth inhibition; type: cell-based, Trypanosoma cruzi; conditions: read-out: (E) T. cruzi EC50
C. parvum = C. parvum growth inhibition; type: cell-based, Cryptosporidium parvum; conditions: read-out: (J) C. parvum EC50

SMILES	Incorporation of 3H-Lysine (protein synthesis) (S. aureus (ATCC 29213) [1])	Resistance frequency (Expt. 1) (S. aureus (ATCC 29213) [2])	Resistance frequency (Expt. 2) (S. aureus (ATCC 29213) [2])	Resistance frequency (average or greater #) (S. aureus (ATCC 29213) [2])	efficacy in thigh infection model (S. aureus (ATCC 29213) [3])	EC50 (T. cruzi; Trypanosoma cruzi)	EC50 (T. cruzi)	EC50 (C. parvum; Cryptosporidium parvum)	EC50 (C. parvum)	reduction of bacterial load below stasis level (S. aureus (ATCC 29213) [3])
CCn1c(Cc2ccc(OC)cc2Cl)cn(Cc2nc3nc(Cl)ccc3[nH]2)c1=O [Compound 2093, 1-({5-chloro-1H-imidazo[4,5-b]pyridin-2-yl}methyl)-4-[(2-chloro-4-methoxyphenyl)methyl]-3-ethyl-2,3-dihydro-1H-imidazol-2-one]	profoundly inhibited	1.60 × 10^−8	2.58 × 10^−8	2.10 × 10^−8	weaker activity than the other MetRS inhibitors evaluated	8.28 nM	5.81 nM	38 nM	33 nM	
COc1cc(Cl)c(-c2cccc3nc(Cc4nc5nc(Cl)ccc5[nH]4)cn23)cc1OC [Compound 2144, 2-({5-chloro-1H-imidazo[4,5-b]pyridin-2-yl}methyl)-5-(2-chloro-4,5-dimethoxyphenyl)imidazo[1,2-a]pyridine]	profoundly inhibited	3.15 × 10^−9	2.45 × 10^−8	1.38 × 10^−8	significant reduction of bacterial load below the stasis level	13.5 nM	7.79 nM	> 2000 nM		approximately 2 log
CCn1c(Cc2ccc(OC)cc2Cl)cn(Cc2nc3nc(F)ccc3[nH]2)c1=O [Compound 2114, 4-[(2-chloro-4-methoxyphenyl)methyl]-3-ethyl-1-({5-fluoro-1H-imidazo[4,5-b]pyridin-2-yl}methyl)-2,3-dihydro-1H-imidazol-2-one]						25.9 nM	23.2 nM	53 nM		
CCn1c(Cc2ccc(Cl)cc2Cl)cn(Cc2nc3nc(F)ccc3[nH]2)c1=O [Compound 2062, 4-[(2,4-dichlorophenyl)methyl]-3-ethyl-1-({5-fluoro-1H-imidazo[4,5-b]pyridin-2-yl}methyl)-2,3-dihydro-1H-imidazol-2-one]						85.2 nM	98.9 nM and 90.8 nM			
Fc1ccc2nc(NCCCN[C@@H]3CCNc4c(Cl)cc(Cl)cc43)[nH]c2n1 [Compound 1717, (4R)-6,8-dichloro—N-[3-({5-fluoro-3H-imidazo[4,5-b]pyridin-2-yl}amino)propyl]-1,2,3,4-tetrahydroquinolin-4-amine, reference compound]	profoundly inhibited	2.89 × 10^−9	5.43 × 10^−9		significant reduction of bacterial load below the stasis level					approximately 2 log
